{"source": "paper PMC8466300", "about": "“Investigating the Central Nervous System Disposition of Actinomycin D: Implementation and Evaluation of Cerebral Microdialysis and Brain Tissue Measurements Supported by UPLC-MS/MS Quantification” (Pharmaceutics, 2021)", "origin": "cited, not measured here", "conditions": "two patients, three hours after intravenous administration; cited from earlier work", "text": "However, in this earlier study, actinomycin D was quantified in cerebrospinal fluid three hours after intravenous administration, i.e., in a protein-poor compartment that is also separated from blood and tissue by active barriers. […] In a more recent study in m ...", "note": "*1 amine or outer side, *2 acyl side, *3 side chain or, on linkers, in order; H or OH if unused. Where a SMILES comes first, the peptide text is derived from it. Bridges are numbered along the chain shown (N, C = ends). Roman numbers before positions name the chains, in order. [ ]: non-standard residue; d: D form. Actinocin(9to1) = Cc1c2oc3c(C)ccc(C(=O)[*:1])c3nc-2c(C(=O)[*:2])c(N)c1=O; NMeV = CN[C@H](C(=O)O)C(C)C; Sar = CNCC(=O)O", "data": [{"smiles": "Cc1c2oc3c(C)ccc(C(=O)N[C@@H]4C(=O)N[C@H](C(C)C)C(=O)N5CCC[C@H]5C(=O)N(C)CC(=O)N(C)[C@@H](C(C)C)C(=O)O[C@@H]4C)c3nc-2c(C(=O)N[C@@H]2C(=O)N[C@H](C(C)C)C(=O)N3CCC[C@H]3C(=O)N(C)CC(=O)N(C)[C@@H](C(C)C)C(=O)O[C@@H]2C)c(N)c1=O", "note": "[actinomycin D, Actinomycin D] (I: T[dV]P[Sar][NMeV] / II: T[dV]P[Sar][NMeV]; ester I:1-I:C, II:1-II:C; linker I:N-II:N via Actinocin(9to1))", "values": [{"measurement": "cerebrospinal fluid concentration relative to corresponding plasma concentration", "result": "approximately 10%"}]}]}
